Blank lines part the entries; values can stand above or below the molecule they belong to.
How the values were obtained:
[1] = literature / authorised label; cited from earlier work
[2] = reported by Chilcote and Sinha, ARVO 2012; cited from earlier work
[3] = Phase 1 trial: single-dose 3-way crossover pharmacokinetic study, ODT vs film-coated tablets; format: in vivo, human; conditions: single doses of 500 mg or 600 mg in ODT or FCT, healthy adult participants
Experimental: This study was an open label, randomized, single-dose, 3-way crossover pharmacokinetic study.
Thirty-six (36) healthy, adult, male and female subjects were enrolled.
The film coated tablets were those used in the phase 2 study described herein (NCT04208412).
There was a washout period of at least 4 days between the dose in Period 1 and Period 2 and the dose in Period 2 and Period 3.
An analysis of variance (ANOVA) was performed on the natural log (ln) transformed AUC0-t, AUC0-inf, AUC% extrap and Cmax, using the appropriate statistical procedure.

[4] = BCS classification (ICH M9); format: physicochemical; conditions: ICH guideline M9
Text: BCS class IV drugs are considered to be poorly soluble and poorly permeable meaning that they are likely to have poor oral bioavailability and/or the oral absorption may be so low that they cannot be given by the oral route. Due to their numerous unfavourable characteristics, BCS class IV drugs are particularly challenging to formulate as oral dosage forms and in particular as ODTs. Indeed, ODTs of BCS class IV drugs are not generally known in the art.

[5] = Plasma concentration after oral administration; format: in vivo; conditions: following administration of a dosage amount of at least about 60 mg
[6] = swallowable tablet, NCT04208412; cited from earlier work

Molecule: Ecallantide
reported adverse reactions [1]: risks of anaphylactic reactions

Molecule: N=C(N)c1ccc(CNC(=O)c2cnn(Cc3ccccc3)c2)cc1 [ASP-440]
oral availability [2]: poor oral availability

BCS classification [4]: BCS class IV | concentration of KVD900 in plasma [5]: at least 500 ng/ml
Molecule: COCc1nn(Cc2ccc(Cn3ccccc3=O)cc2)cc1C(=O)NCc1nccc(OC)c1F [KVD900, N-[(3-fluoro-4-methoxypyridin-2-yl)methyl]-3-(methoxymethyl)-1-({4-[(2-oxopyridin-1-yl)methyl]phenyl}methyl) pyrazole-4-carboxamide]
safety and tolerability [3]: well tolerated | phase 2 efficacy and safety endpoints [6]: met all of its phase 2 efficacy and safety endpoints

Molecule: N#Cc1cccc([C@@H](NCC2CC2)c2ccc(F)c(NC(=O)c3cc(C(F)(F)F)nn3-c3cccc(CN)c3)c2)c1 [Berotralstat, reference compound]
reported adverse reactions [1]: higher doses were associated with more gastrointestinal adverse effects

B1: lanadelumab: recombinant fully human IgG1 kappa light chain monoclonal antibody, plasma kallikrein inhibitor (antibody, chains of the INN, looked up, V domains shown)
VH: EVQLLESGGGLVQPGGSLRLSCAASGFTFSHYIMMWVRQAPGKGLEWVSGIYSSGGITVYADSVKGRFTISRDNSKNTLYLQMNSLRAEDTAVYYCAYRRIGVPRRDEFDIWGQGTMVTVSS
VL: DIQMTQSPSTLSASVGDRVTITCRASQSISSWLAWYQQKPGKAPKLLIYKASTLESGVPSRFSGSGSGTEFTLTISSLQPDDFATYYCQQYNTYWTFGQGTKVEIK
reported adverse reactions [1]: hypersensitivity, injection site pain, injection site erythema, and injection site bruising
